Data reported in US12415799B2, “Indazole-fused cyclic compound” (Zhejiang Yangli Pharmaceutical Technology Co., Ltd., priority 2020, dated 2025).

Experiment: In vivo pharmacokinetics study in dogs
Set-up: species or system beagle dogs
Description: Experimental purposes: To test the drug concentration in plasma of beagle dogs at different times after intravenous and intragastric administration of the test compound by LC/MS/MS using beagle dogs as the experimental animals. To study the pharmacokinetics of the test compound in beagle dogs in vivo and evaluate their pharmacokinetic characteristics.
Two healthy male and two female beagle dogs were divided into two groups according to the principle of similar body weight, with one male and one female in IV group and one male and one female in PO group. Animals were purchased from Beijing Marshall Biotechnology Co., Ltd.
IV group: Appropriate number of samples were weighed and prepared into 1 mg/mL solution respectively, and the mixture was stirred and ultrasonicated to reach a clear state, and the solvent was 10% HP-β-CD, and the pH value was adjusted to 5.74.
PO group: Appropriate amount of the solution prepared in IV group was diluted to 0.2 mg/mL with 10% HP-β-CD, and the pH value was adjusted to 5.8.
Administration: After fasting overnight, IV group was administered intravenously, and the dosage of the test compound was 1 mg/kg; PO group was administered intragastrically, and the dosage of the test compound was 2 mg/kg.
After the beagle dogs in the intravenous injection group were given the test compound respectively, and 200 μL of blood was collected from the peripheral vein at 0.0833, 0.25, 0.5, 1, 2, 4, 6, 8, 12 and 24 hours, and placed in a commercialized anticoagulant tube added with EDTA-K2 in advance. After intragastric administration of the test compound, 200 μL of blood was collected from the peripheral vein at 0.25, 0.5, 1, 2, 4, 6, 8, 12 and 24 hours, respectively, and placed in a commercialized anticoagulant tube added with EDTA-K2 in advance. After centrifugation (3,200 g, 4° C., 10 minutes), the plasma was collected, transferred to a pre-cooled centrifuge tube, quickly frozen in dry ice, and stored in a refrigerator at −60° C. or lower, until LC-MS/MS analysis. Animals were allowed to eat 4 hours after administration. LC/MS/MS method was used to determine the content of the test compound in the plasma of beagle dogs after intravenous and intragastric administration. The linear range of the method was 2.00 to 2000 nM.

FCCCN1CC[C@H](Nc2cnc(C3=C(CC(F)(F)F)CCCc4c3ccc3[nH]nc(F)c43)cn2)C1 [Compound 11A]
AUC0-last (i.v. 1 mg/kg): 5.078 µM·h | Cl (i.v. 1 mg/kg): 3.44 mL/min/kg | T1/2 (i.v. 1 mg/kg): 23.1 h | Vdss (i.v. 1 mg/kg): 6.60 L/kg | AUC0-last (p.o. 2 mg/kg): 7.963 µM·h | Cmax (p.o. 2 mg/kg): 495 nM | T1/2 (p.o. 2 mg/kg): 19.2 h | F % (p.o. 2 mg/kg vs i.v. 1 mg/kg): 78.2%
